# Data: patent publication US20060167057A1, “Compounds for the treatment of CNS and amyloid associated diseases” (priority 2004, published 2006)
# Molecular target: T1, L1 transport system (large neutral amino acid carrier, L1-system carrier) (Rattus norvegicus, UniProt Q63016)
# T1 construct: functionality of their endogenous transporters such as the L1-system carrier; endogenous in cells; host or cells: rat primary cerebrovascular (brain microcapillary) endothelial cells, RBEC
# Test: Competitive binding assay to the brain L1 transport system (L-[U-14C]phenylalanine on rat primary cerebrovascular endothelial cells)
# Procedure: Compound samples in PBS (without Ca^+2, Mg^+2)-glucose 30 mM-HEPES 10 mM—DMSO 1% as prepared in Example 1 were thawed and left for at least 30 minutes at 20-23° C. before preparation of the following sub-dilutions for the competitive binding assay: • 200 μL of the stock solution were added to 800 μL PBS (without Ca^+2, Mg^+2)-Glucose-HEPES-1% DMSO (PBSD-1) [diluted 1:5 for a final 1:5 dilution] • 100 μL (1/5 dilution above) were added to 900 μL PBSD-1 [diluted 1:10 for a final 1:50 dilution] • 100 μL (1/50 dilution above) were added to 900 μL PBSD-1 [diluted 1:10 for a final 1:500 dilution]
# These sub-dilutions were used immediately or stored overnight at 4° C. before the competitive binding assay. A volume of 45 μL of each of the compound dilutions (1:5, 1:50, 1:500) in PBSD-1 was added to the appropriate wells in the dilution plate.
# Brains from sixty 24-day-old rats were dissected individually on a sterile lint moistened with ice cold Hanks' balanced salt solution (Gibco BRL, Grand Island, N.Y.) containing 10 mM HEPES (medium 1) supplemented with 0.1% BSA. Cerebellum, striatum, optic nerves, and brain stem (white matter) were removed. After a mid-sagittal section of the brain, the meninges and leptomeningeal debris were removed by rolling a sterile dry cotton swab on the cortices. (Ichikawa N, Naora K, Hirano H, Hashimoto M, Masumura S, and Iwamoto K (1996). Isolation and primary culture of rat cerebral microvascular endothelial cells for studying drug transport in vitro. J Pharmacol Toxicol Meth 36: 45-52.). Clean cortices were minced in pieces of ≈2 mm^3 in 15 mL of ice-cold medium 1-0.1% BSA. The preparation was divided into 4 sterile pre-weighed tubes and centrifuged at 330× g at 20-25° C. for 5 min. Tubes were weighed and pre-warmed (37° C.) and medium 1 with 0.5% BSA containing 0.3% collagenase and 10 μg/mL DNAse 1 (Roche, Laval, Quebec, Canada) were added to each tube (1 mL/g of tissue).
# The brain-collagenase mixture was vigorously agitated in a water bath at 37° C. for 90 min. Fifteen min before the end of the digestion, the tissue was homogenized using a 10-mL pipette until a creamy mixture was obtained (≈20 aspirations). Cells were washed by adding medium 1 with 0.1% BSA to the homogenate (26 mL/tube) and centrifuged at 100× g at 20-25° C. for 7 min. This washing step was repeated 3 more times, once for 5 min and twice for 3 min. Each pellet was re-suspended in 25 mL of a 15% dextran solution prepared in medium 1 with 0.1% BSA and centrifuged at 3200× g at 4° C. for 25 min to isolate vessels from neural tissue and dextran layers. Vascular pellets were re-suspended in 5 mL Ca^++—Mg^++-free-medium 1 with 0.1% BSA (medium 2) at 20-25° C. and transferred in a 50-mL tube. Remaining vessels were collected by rinsing the tubes and pooling the rinsing suspension. (Rupnick M A, Carey A, and Williams S K (1988). Phenotypic diversity in cultured cerebral microvascular endothelial cells in vitro. Cell Develop Biol 24: 435-444.)
# The vascular preparation was filtered and rinsed (20 mL of medium 2) through a sterile 355-μm mesh. The 355-μm filtrate was sequentially filtered twice (20 mL of medium 2) through sterile 112-μm meshes and rinsed (Stanimirovic D B, Wong J, Ball R, and Durkin J P (1995). Free radical-induced endothelial membrane dysfunction at the site of the blood-brain barrier: relationship between lipid peroxidation, Na,K-ATPase activity, and ^51Cr release. Neurochem Res 20:1417-1427.) and the latter filtrate was filtered and rinsed through a sterile 20-μm mesh. A final step of filtration and rinse was repeated through a double layer of 20-μm meshes. All 20-μm meshes, which retained the microcapillaries, were then transferred into a 50-mL tube containing 20 mL of a 0.1% collagenase/dispase (Roche) solution in medium 2 supplemented with 10 μg/mL DNAse 1 and 0.147 μg/mL tosyl-lysine-chloromethyl-ketone (Sigma Chemical Co., Oakville, Ontario, Canada) (medium 3).
# T1 sequence (Q63016 whole entry): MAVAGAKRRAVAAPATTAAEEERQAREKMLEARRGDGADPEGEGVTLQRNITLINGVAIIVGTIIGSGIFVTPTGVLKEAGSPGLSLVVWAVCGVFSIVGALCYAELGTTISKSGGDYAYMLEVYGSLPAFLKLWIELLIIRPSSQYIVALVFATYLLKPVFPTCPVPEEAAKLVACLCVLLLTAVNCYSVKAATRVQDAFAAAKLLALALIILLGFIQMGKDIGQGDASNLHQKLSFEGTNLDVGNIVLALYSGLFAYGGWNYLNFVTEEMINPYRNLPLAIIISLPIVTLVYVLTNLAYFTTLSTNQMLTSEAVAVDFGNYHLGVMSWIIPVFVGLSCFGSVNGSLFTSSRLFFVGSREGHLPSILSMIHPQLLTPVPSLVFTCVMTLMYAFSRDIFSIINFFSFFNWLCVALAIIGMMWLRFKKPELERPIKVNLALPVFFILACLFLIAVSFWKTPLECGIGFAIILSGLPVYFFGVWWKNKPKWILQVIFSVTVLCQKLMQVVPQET
# T1 sequence (Q794F9 whole entry partner): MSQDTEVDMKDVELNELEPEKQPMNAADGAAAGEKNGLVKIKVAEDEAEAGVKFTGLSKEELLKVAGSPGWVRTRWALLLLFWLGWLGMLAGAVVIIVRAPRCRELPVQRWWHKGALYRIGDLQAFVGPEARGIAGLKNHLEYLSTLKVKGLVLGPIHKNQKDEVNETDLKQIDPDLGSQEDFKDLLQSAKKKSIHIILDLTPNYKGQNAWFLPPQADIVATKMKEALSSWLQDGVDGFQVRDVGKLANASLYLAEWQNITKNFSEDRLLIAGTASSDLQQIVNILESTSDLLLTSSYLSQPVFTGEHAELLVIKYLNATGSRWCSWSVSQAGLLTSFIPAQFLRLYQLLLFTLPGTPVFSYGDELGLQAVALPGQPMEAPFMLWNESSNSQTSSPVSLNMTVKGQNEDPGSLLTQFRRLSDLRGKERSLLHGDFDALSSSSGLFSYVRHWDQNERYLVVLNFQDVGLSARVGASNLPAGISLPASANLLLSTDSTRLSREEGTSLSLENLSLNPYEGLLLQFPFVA
SMILES,Comparison with the Binding of Phenylalanine (10^−4 M),Comparison with the Binding of Phenylalanine (10^−5 M),Comparison with the Binding of Phenylalanine (10^−6 M)
NC(Cc1cccc(CSc2nnc(-c3ccccc3)o2)c1)C(=O)O (stereo not drawn) [Compound 1],2 (10 < X < 20 Rank 2),3 (X > 20 Rank 3),2 (10 < X < 20 Rank 2)
NC(Cc1cccc(CSc2nnnn2-c2ccc(O)cc2)c1)C(=O)O (stereo not drawn) [Compound 3],3 (X > 20 Rank 3),3 (X > 20 Rank 3),3 (X > 20 Rank 3)
NC(=O)C(N)Cc1cccc(CSc2nnnn2-c2ccc(O)cc2)c1 (stereo not drawn) [Compound 4],2 (10 < X < 20 Rank 2),3 (X > 20 Rank 3),3 (X > 20 Rank 3)
NC(Cc1cccc(CSc2ncc[nH]2)c1)C(=O)O (stereo not drawn) [Compound 5],3 (X > 20 Rank 3),3 (X > 20 Rank 3),3 (X > 20 Rank 3)
NC(=O)C(N)Cc1cccc(CSc2ncc[nH]2)c1 (stereo not drawn) [Compound 6],0 (X < 0 Rank 0),0 (X < 0 Rank 0),3 (X > 20 Rank 3)
N[C@@H](Cc1ccccc1)C(=O)NC(Cc1cccc(CSc2ncc[nH]2)c1)C(=O)O (stereo partly drawn) [Compound 7],0 (X < 0 Rank 0),0 (X < 0 Rank 0),2 (10 < X < 20 Rank 2)
NC(Cc1cccc(CSc2nnnn2-c2ccccc2)c1)C(=O)O (stereo not drawn) [Compound 8],3 (X > 20 Rank 3),3 (X > 20 Rank 3),3 (X > 20 Rank 3)
NC(=O)C(N)Cc1cccc(CSc2nnnn2-c2ccccc2)c1 (stereo not drawn) [Compound 9],0 (X < 0 Rank 0),1 (0 < X < 10 Rank 1),0 (X < 0 Rank 0)
NC(Cc1cccc(CSc2nnc(-c3ccncc3)o2)c1)C(=O)O (stereo not drawn) [Compound 10],0 (X < 0 Rank 0),1 (0 < X < 10 Rank 1),3 (X > 20 Rank 3)
NC(=O)C(N)Cc1cccc(CSc2nnc(-c3ccncc3)o2)c1 (stereo not drawn) [Compound 11],0 (X < 0 Rank 0),1 (0 < X < 10 Rank 1),2 (10 < X < 20 Rank 2)
O=C(O)C(Cc1cccc(CSc2nnc(-c3ccncc3)o2)c1)NS(=O)(=O)c1ccc(F)cc1 (stereo not drawn) [Compound 12],0 (X < 0 Rank 0),0 (X < 0 Rank 0),2 (10 < X < 20 Rank 2)
NC(Cc1cccc(CSc2nnc(-c3ccccc3)[nH]2)c1)C(=O)O (stereo not drawn) [Compound 13],3 (X > 20 Rank 3),3 (X > 20 Rank 3),3 (X > 20 Rank 3)
NC(=O)C(N)Cc1cccc(CSc2nnc(-c3ccccc3)[nH]2)c1 (stereo not drawn) [Compound 14],0 (X < 0 Rank 0),3 (X > 20 Rank 3),2 (10 < X < 20 Rank 2)
NC(Cc1cccc(CSc2nccc(O)n2)c1)C(=O)O (stereo not drawn) [Compound 16],0 (X < 0 Rank 0),1 (0 < X < 10 Rank 1),0 (X < 0 Rank 0)
O=C(NC(Cc1cccc(CSc2nccc(O)n2)c1)C(=O)O)NC(c1ccccc1)c1ccccc1 (stereo not drawn) [Compound 17],1 (0 < X < 10 Rank 1),1 (0 < X < 10 Rank 1),2 (10 < X < 20 Rank 2)
NC(Cc1cccc(CSc2nccc(C(F)(F)F)n2)n1)C(=O)O (stereo not drawn) [Compound 21],0 (X < 0 Rank 0),2 (10 < X < 20 Rank 2),1 (0 < X < 10 Rank 1)
NC(=O)C(N)Cc1cccc(CSc2nccc(C(F)(F)F)n2)n1 (stereo not drawn) [Compound 22],0 (X < 0 Rank 0),1 (0 < X < 10 Rank 1),0 (X < 0 Rank 0)
NC(Cc1cccc(CSc2cncc3c(C(F)(F)F)cccc23)n1)C(=O)O (stereo not drawn) [Compound 24],0 (X < 0 Rank 0),0 (X < 0 Rank 0),3 (X > 20 Rank 3)
NC(=O)C(N)Cc1cccc(CSc2cncc3c(C(F)(F)F)cccc23)n1 (stereo not drawn) [Compound 25],0 (X < 0 Rank 0),1 (0 < X < 10 Rank 1),0 (X < 0 Rank 0)
N[C@@H](Cc1ccccc1)C(=O)NC(Cc1cccc(CSc2cncc3c(C(F)(F)F)cccc23)n1)C(=O)O (stereo partly drawn) [Compound 26],0 (X < 0 Rank 0),0 (X < 0 Rank 0),1 (0 < X < 10 Rank 1)
NC(Cc1cccc(CSc2nc3ccccc3[nH]2)n1)C(=O)O (stereo not drawn) [Compound 27],3 (X > 20 Rank 3),3 (X > 20 Rank 3),3 (X > 20 Rank 3)
N[C@@H](Cc1ccccc1)C(=O)NC(Cc1cccc(CSc2nc3ccccc3[nH]2)n1)C(=O)O (stereo partly drawn) [Compound 29],0 (X < 0 Rank 0),1 (0 < X < 10 Rank 1),3 (X > 20 Rank 3)
NC(=O)C(N)Cc1cccc(CSc2nc3ccccc3o2)n1 (stereo not drawn) [Compound 31],0 (X < 0 Rank 0),0 (X < 0 Rank 0),2 (10 < X < 20 Rank 2)
N[C@@H](Cc1ccccc1)C(=O)NC(Cc1cccc(CSc2nc3ccccc3o2)n1)C(=O)O (stereo partly drawn) [Compound 32],0 (X < 0 Rank 0),1 (0 < X < 10 Rank 1),3 (X > 20 Rank 3)
NC(Cc1cccc(CSc2ncnc3[nH]ncc23)n1)C(=O)O (stereo not drawn) [Compound 33],3 (X > 20 Rank 3),3 (X > 20 Rank 3),3 (X > 20 Rank 3)
NC(=O)C(N)Cc1cccc(CSc2ncnc3[nH]ncc23)n1 (stereo not drawn) [Compound 34],0 (X < 0 Rank 0),0 (X < 0 Rank 0),1 (0 < X < 10 Rank 1)
NC(Cc1cccc(CSc2nnc[nH]2)n1)C(=O)O (stereo not drawn) [Compound 35],0 (X < 0 Rank 0),0 (X < 0 Rank 0),3 (X > 20 Rank 3)
Nc1ccnc(SCc2cccc(CC(N)C(=O)O)n2)n1 (stereo not drawn) [Compound 38],2 (10 < X < 20 Rank 2),3 (X > 20 Rank 3),3 (X > 20 Rank 3)
